We go through 28 compounds from US8143244B2, “Cyclopropyl fused indolobenzazepine HCV NS5B inhibitors” (Bristol-Myers Squibb Company, priority 2009, dated 2012).

Read-outs that look alike come from different tables or passages of the source.

The target of one assay is T1, HCV NS5B (Hepatitis C virus genotype 1b, UniProt Q9WMX2).
T1 construct: The protein was expressed with an 18 amino acid C-terminal truncation to enhance the solubility; made in house; host or cells: E. coli BL21(DE3)
The assay is described as follows: HCV NS5B RdRp enzyme assay. It is filed as biochemical. The following applies: HCV NS5B RdRp genotype 1b. In outline:
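Modified format: 14 nM C-terminally truncated (Δ18) genotype 1b NS5B added to compound before template (0.2 nM polyA), 3H-UTP (0.6 μCi, 0.29 μM) and oligo-dT12 primer (20 nM) precaptured on SPA beads; 4 h, 30° C. Standard format: 28 nM enzyme, 6 nM template, 180 nM primer, 60 min, 30° C, SPA read-out. IC50 from seven concentrations, 2% DMSO.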

The next assay has as its system HCV replicon. The assay is described as follows: HCV Replicon Luciferase Reporter Assay (LE Assay). In kind it is cell-based, HCV genotype 1b. The procedure:
The HCV replicon luciferase assay was developed to monitor the inhibitory effects of compounds described in the disclosure on HCV viral replication. Utilization of a replicon luciferase reporter assay was first described by Krieger et al (Krieger N, Lohmann V, and Bartenschlager R, J. Virol. 75(10):4614-4624 (2001)). HUH-7 cells, constitutively expressing the HCV replicon, were grown in Dulbeccors Modified Eagle Media (DMEM) (Gibco-BRL) containing 10% Fetal calf serum (FCS) (Sigma) and 1 mg/ml G418 (Gibco-BRL). Compounds were serially diluted 3 folds in DMSO for a twenty-point titration and subsequently transferred to sterile 384-well tissue-culture treated plates (Coming cat #3571). The plates were then seeded with 50 μl of cells at a density of 3.0×10^3 cells/well in DMEM containing 4% FCS (final DMSO concentration at 0.5%). After 3 days incubation at 37° C., cells were analyzed for Renilla Luciferase activity using the EnduRen as substrate (Promega cat #E6485). The EnduRen substrate was diluted in DMEM and then added to the plates to a final concentration of 7.5 μM. The plates were incubated for 2 hrs at 37° C. and then read immediately for 30 seconds with Viewlux Imager (PerkinElmer) using a luminescence program. To assess cytotoxicity of compounds, CC50 values were generated by multiplexing the EnduRen-containing plates with Cell Titer-Blue (Promega, cat #G8082). 3 μl of Cell-Titer Blue was added to each well and incubated for 8 hrs at 37° C. The fluorescence signal from each well was read, with an excitation wavelength at 525/10 nm and an emission wavelength of 598/10 nm, using the Viewlux Imager.

[1] abbreviates: Table 2, HUH-7 cells, read-out: LE NeoLuc EC50.
Setting [2] is: Hepatitis C virus, Huh-7, Table 2, HUH-7 cells, read-out: LE NeoLuc EC50.
The mark [3] stands for this setting: Hepatitis C virus, genotype 1b, Huh-7, read-out: LE NeoLuc EC50, Table 1, HUH-7 cells, genotype 1b replicon.

T1 sequence (Q9WMX2 2420-2992): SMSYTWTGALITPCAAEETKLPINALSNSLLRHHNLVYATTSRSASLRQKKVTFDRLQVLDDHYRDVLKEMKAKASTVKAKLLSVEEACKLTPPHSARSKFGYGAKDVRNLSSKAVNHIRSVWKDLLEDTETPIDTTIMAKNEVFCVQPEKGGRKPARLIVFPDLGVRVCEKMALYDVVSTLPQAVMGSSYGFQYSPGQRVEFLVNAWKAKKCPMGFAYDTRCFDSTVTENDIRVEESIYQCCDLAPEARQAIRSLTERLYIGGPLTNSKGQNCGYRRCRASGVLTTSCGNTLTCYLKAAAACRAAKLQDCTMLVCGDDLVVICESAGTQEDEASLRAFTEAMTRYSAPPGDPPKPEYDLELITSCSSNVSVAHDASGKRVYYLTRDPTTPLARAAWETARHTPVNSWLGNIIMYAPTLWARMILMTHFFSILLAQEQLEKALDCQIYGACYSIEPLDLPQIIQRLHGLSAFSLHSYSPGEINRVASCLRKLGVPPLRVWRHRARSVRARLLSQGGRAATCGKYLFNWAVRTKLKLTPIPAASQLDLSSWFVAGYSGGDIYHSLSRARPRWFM

For orientation: IC50 means the concentration that gives 50% inhibition. The EC50 is the midpoint of the concentration-response curve. As to `COc1ccc2c(c1)[C@@H]1C[C@]1(C(=O)N1CC34COCC3(C1)N(C(C)=O)C4)Cn1c-2c(C2CCCCC2)c2ccc(C(=O)NS(=O)(=O)C(C)C)cc21` (some centres unmarked) [drawing 109], the half-maximal inhibitory concentration (IC50) at HCV NS5B (Table 2) is 0.0031 µM. In addition, the EC50 with HCV replicon (setting [1]) was determined as 0.09 µM.

In the case of `COc1ccc2c(c1)C1CC1(C(=O)N1CC34COCC3(CN(C)C4)C1)Cn1c-2c(C2CCCCC2)c2ccc(C(=O)NS(=O)(=O)N(C)C)cc21` (centres unmarked) [drawing 106], the IC50 on HCV NS5B (Table 2) came to 0.00879 µM. Further, the EC50 with HCV replicon (setting [2]) was 0.04 µM.

`COc1ccc2c(c1)[C@@H]1C[C@]1(C(=O)N1CC34CNCC3(COC4)C1)Cn1c-2c(C2CCCCC2)c2ccc(C(=O)NS(=O)(=O)C(C)C)cc21` (some centres unmarked) yielded an IC50 at HCV NS5B (Table 1) of 0.0019 to 0.5 µM. The EC50 in the assay with HCV replicon (setting [3]) was 0.0019 to 0.5 µM.

In turn, `COc1ccc2c(c1)C1CC1(C(=O)N1CC34COCC3(CN(C)C4)C1)Cn1c-2c(C2CCCCC2)c2ccc(C(=O)NS(=O)(=O)N(C)C)cc21` (centres unmarked) [drawing 61] came in with an IC50 at HCV NS5B (Table 1) of 0.0019 to 0.5 µM. The EC50 in the assay with HCV replicon (setting [3]) lay within 0.0019 to 0.5 µM.

Consider `COc1ccc2c(c1)C1CC1(C(=O)N1CC34CNCC3(CN(C)C4)C1)Cn1c-2c(C2CCCCC2)c2ccc(C(=O)NS(=O)(=O)N(C)C)cc21` (centres unmarked), for which the IC50 against HCV NS5B (Table 1) lay in the range of 0.0019 to 0.5 µM. Further, in the assay on HCV replicon (setting [3]), the EC50 is 0.0019 to 0.5 µM.

`COc1ccc2c(c1)[C@@H]1C[C@]1(C(=O)N1CC34CN(C)CC3(CN(C)C4)C1)Cn1c-2c(C2CCCCC2)c2ccc(C(=O)NS(=O)(=O)C(C)C)cc21` (some centres unmarked): the IC50 against HCV NS5B (Table 1) lay in the range of 0.0019 to 0.5 µM. In the assay on HCV replicon (setting [3]), the EC50 is 0.0019 to 0.5 µM.

As to `COc1ccc2c(c1)CC(C(=O)N1CC34CN(C)CC3(CN(C)C4)C1)Cn1c-2c(C2CCCCC2)c2ccc(C(=O)NS(=O)(=O)N(C)C)cc21` (centres unmarked), at HCV NS5B (Table 1), the IC50 lay in the range of 0.0019 to 0.5 µM. For the same compound, the half-maximal effective concentration (EC50) with HCV replicon (setting [3]) lay within 0.0019 to 0.5 µM.

Take `COc1ccc2c(c1)C1CC1(C(=O)N1CC34CN(C)CC3(CN(C)C4)C1)Cn1c-2c(C2CCCCC2)c2ccc(C(=O)NS(=O)(=O)N(C)C)cc21` (centres unmarked): the IC50 against HCV NS5B (Table 1) is 0.0019 to 0.5 µM. In the assay with HCV replicon (setting [3]), the EC50 lay within 0.0019 to 0.5 µM.

In turn, `COc1ccc2c(c1)C1CC1(C(=O)N1CC34CNCC3(COC4)C1)Cn1c-2c(C2CCCCC2)c2ccc(C(=O)NS(=O)(=O)N(C)C)cc21` (centres unmarked) showed an IC50 against HCV NS5B (Table 1) of 0.0019 to 0.5 µM. The half-maximal effective concentration (EC50) in the assay with HCV replicon (setting [3]) lay within 0.0019 to 0.5 µM.

On HCV NS5B (Table 1), `COc1ccc2c(c1)CC(C(=O)N1CC34COCC3(CN(C)C4)C1)Cn1c-2c(C2CCCCC2)c2ccc(C(=O)NS(=O)(=O)C3CC3)cc21` (centres unmarked) showed an IC50 of 0.0019 to 0.5 µM. Further, the EC50 with HCV replicon (setting [3]) was 0.0019 to 0.5 µM.

`COc1ccc2c(c1)C=C(C(=O)N1CC34COCC3(CN(C)C4)C1)Cn1c-2c(C2CCCCC2)c2ccc(C(=O)NS(=O)(=O)N(C)C)cc21` (centres unmarked) registered an IC50 against HCV NS5B (Table 1) of 0.0019 to 0.5 µM. Moreover, the EC50 in the assay on HCV replicon (setting [3]) lay within 0.0019 to 0.5 µM.

Compound `COc1ccc2c(c1)CC(C(=O)N1CC34CNCC3(COC4)C1)Cn1c-2c(C2CCCCC2)c2ccc(C(=O)NS(=O)(=O)C3CC3)cc21` (centres unmarked) returned an IC50 against HCV NS5B (Table 1) of 0.0019 to 0.5 µM. Besides, the EC50 in the assay with HCV replicon (setting [3]) is 0.5 to 5 µM.

`C=C(C)S(=O)(=O)NC(=O)c1ccc2c(C3CCCCC3)c3n(c2c1)C[C@@]1(C(=O)N2CC45COCC4(CN(C)C5)C2)C[C@H]1c1cc(OC)ccc1-3` (some centres unmarked): the IC50 at HCV NS5B (Table 1) is 0.0019 to 0.5 µM. Moreover, in the assay on HCV replicon (setting [3]), the EC50 lay within 0.0019 to 0.5 µM.

Consider `COc1ccc2c(c1)C=C(C(=O)N1CC34CN(C)CC3(CN(C)C4)C1)Cn1c-2c(C2CCCCC2)c2ccc(C(=O)NS(=O)(=O)N(C)C)cc21` (centres unmarked), for which, on HCV NS5B (Table 1), the IC50 was 0.0019 to 0.5 µM. The half-maximal effective concentration (EC50) in the assay with HCV replicon (setting [3]) is 0.0019 to 0.5 µM.

As for `COc1ccc2c(c1)[C@@H]1C[C@]1(C(=O)N1CC34COCC3(C1)CN(C1CC1)C4)Cn1c-2c(C2CCCCC2)c2ccc(C(=O)NS(=O)(=O)C(C)C)cc21` (some centres unmarked), the IC50 against HCV NS5B (Table 1) fell in the range of 0.0025 to 0.5 µM. Also, the EC50 with HCV replicon (setting [3]) lay within 0.0019 to 0.5 µM.

Consider `COc1ccc2c(c1)[C@@H]1C[C@]1(C(=O)N1CC34CNCC3(CN(C)C4)C1)Cn1c-2c(C2CCCCC2)c2ccc(C(=O)NS(=O)(=O)C(C)C)cc21` (some centres unmarked), for which, on HCV NS5B (Table 1), the IC50 was in the range of 0.0019 to 0.5 µM. In the assay with HCV replicon (setting [3]), the half-maximal effective concentration (EC50) fell in the range of 0.5 to 1 µM.

The compound `COc1ccc2c(c1)C1CC1(C(=O)N1CC34COCC3(CN(C(C)=O)C4)C1)Cn1c-2c(C2CCCCC2)c2ccc(C(=O)NS(=O)(=O)CC(C)C)cc21` (centres unmarked) showed an IC50 against HCV NS5B (Table 1) of 0.0019 to 0.5 µM. Besides, the EC50 with HCV replicon (setting [3]) is 0.5 to 1 µM.

Compound `COc1ccc2c(c1)C=C(C(=O)N1CC34COCC3(C1)N(C(C)=O)C4)Cn1c-2c(C2CCCCC2)c2ccc(C(=O)NS(=O)(=O)N(C)C)cc21` (centres unmarked) returned an IC50 on HCV NS5B (Table 1) of 0.0019 to 0.5 µM. Also, the EC50 in the assay with HCV replicon (setting [3]) is 0.0019 to 0.5 µM.

In turn, `COc1ccc2c(c1)[C@@H]1C[C@]1(C(=O)N1CC34COCC3(CN(C)C4)C1)Cn1c-2c(C2CCCCC2)c2ccc(C(=O)NS(=O)(=O)C(C)C)cc21` (some centres unmarked) yielded a half-maximal inhibitory concentration (IC50) at HCV NS5B (Table 1) of 0.0019 to 0.5 µM. The EC50 with HCV replicon (setting [3]) was in the range of 0.0019 to 0.5 µM.

`COc1ccc2c(c1)[C@@H]1C[C@]1(C(=O)N1CC34COCC3(C1)N(C(C)=O)C4)Cn1c-2c(C2CCCCC2)c2ccc(C(=O)NS(=O)(=O)N(C)C)cc21` (some centres unmarked): the IC50 against HCV NS5B (Table 1) lay in the range of 0.0019 to 0.5 µM. Besides, in the assay on HCV replicon (setting [3]), the EC50 lay within 0.0019 to 0.5 µM.

As for `COc1ccc2c(c1)[C@@H]1C[C@]1(C(=O)N1CC34COCC3(C1)N(C(C)=O)C4)Cn1c-2c(C2CCCCC2)c2ccc(C(=O)NS(=O)(=O)C(C)C)cc21` (some centres unmarked) [drawing 73], at HCV NS5B (Table 1), the IC50 lay in the range of 0.0019 to 0.5 µM. Besides, in the assay with HCV replicon (setting [3]), the EC50 lay in the range of 0.0019 to 0.5 µM.

Turning to `COc1ccc2c(c1)C=C(C(=O)N1CC34CNCC3(COC4)C1)Cn1c-2c(C2CCCCC2)c2ccc(C(=O)NS(=O)(=O)N(C)C)cc21` (centres unmarked), on HCV NS5B (Table 1), the 50% inhibitory concentration (IC50) lay within 0.0019 to 0.5 µM. For the same compound, the EC50 with HCV replicon (setting [3]) was in the range of 0.0019 to 0.5 µM.

As to `COc1ccc2c(c1)C1CC1(C(=O)N1CC34CNCC3(CN(C)C4)C1)Cn1c-2c(C2CCCCC2)c2ccc(C(=O)NS(=O)(=O)C3CC3)cc21` (centres unmarked), the IC50 on HCV NS5B (Table 2) was 0.0078 µM. Also, the EC50 in the assay on HCV replicon (setting [2]) turned out to be 2.1 µM.

On to `COc1ccc2c(c1)CC(C(=O)N1CC34CNCC3(CN(C)C4)C1)Cn1c-2c(C2CCCCC2)c2ccc(C(=O)NS(=O)(=O)C3CC3)cc21` (centres unmarked), for which the concentration for half-maximal inhibition (IC50) on HCV NS5B (Table 1) was in the range of 0.0019 to 0.5 µM. Also, the EC50 with HCV replicon (setting [3]) fell in the range of 0.5 to 1 µM.

As to `COc1ccc2c(c1)[C@@H]1C[C@]1(C(=O)N1CC34COCC3(C1)N(C(C)=O)C4)Cn1c-2c(C2CCCCC2)c2ccc(C(=O)NS(=O)(=O)C(C)C)cc21` (some centres unmarked) [drawing 110], the IC50 against HCV NS5B (Table 2) came to 0.0024 µM. The EC50 with HCV replicon (setting [1]) was found to be 0.03 µM.

As to `COc1ccc2c(c1)C=C(C(=O)N1CC34COCC3(CN(C)C4)C1)Cn1c-2c(C2CCCCC2)c2ccc(C(=O)NS(=O)(=O)C3CC3)cc21` (centres unmarked), at HCV NS5B (Table 1), the IC50 is 0.0019 to 0.5 µM. Also, the EC50 with HCV replicon (setting [3]) lay in the range of 0.0019 to 0.5 µM.

As for `COc1ccc2c(c1)C=C(C(=O)N1CC34CNCC3(COC4)C1)Cn1c-2c(C2CCCCC2)c2ccc(C(=O)NS(=O)(=O)C3CC3)cc21` (centres unmarked), the IC50 on HCV NS5B (Table 1) lay in the range of 0.0019 to 0.5 µM. Moreover, the EC50 with HCV replicon (setting [3]) lay in the range of 0.0019 to 0.5 µM.

Regarding `CCN1CC23COCC2(C1)CN(C(=O)[C@]12C[C@H]1c1cc(OC)ccc1-c1c(C4CCCCC4)c4ccc(C(=O)NS(=O)(=O)C(C)C)cc4n1C2)C3` (some centres unmarked), the half-inhibitory concentration (IC50) on HCV NS5B (Table 1) fell in the range of 0.0019 to 0.5 µM. Besides, the EC50 with HCV replicon (setting [3]) lay within 0.0019 to 0.5 µM.
